Results reported in the NIST ThermoML archive (doi:10.1021/acs.jced.7b00466).

Conditions: for viscosity / speed of sound / mass density: 102 kPa, Liquid; for viscosity: Concentric cylinders viscometry; for speed of sound: Frequency=3 MHz, Sing-around technique in a fixed-path interferometer; for mass density: Vibrating tube method; for surface tension liquid-gas: Pendant drop shape

CCCCc1ccccc1 [butylbenzene]
Conditions	mass density [kg/m3]	speed of sound [m/s]	surface tension liquid-gas [mN/m]	viscosity [mPa·s]
293.15 K	860.6	1352.8	–	1.06
294.4 K	–	–	28.8	–
303.15 K	852.56	1314	–	0.915
313.15 K	844.5	1275.8	–	0.801
323.15 K	836.41	1238.2	–	0.708
333.15 K	828.29	1201.4	–	0.631
343.15 K	820.3	–	–	0.566

CCCCC1CCCCC1 [butylcyclohexane]
Conditions	mass density [kg/m3]	speed of sound [m/s]	surface tension liquid-gas [mN/m]	viscosity [mPa·s]
293.15 K	799.33	1327.7	–	1.31
294.5 K	–	–	26.6	–
303.15 K	791.82	1287.9	–	1.11
313.15 K	784.28	1248.7	–	0.961
323.15 K	776.7	1210.3	–	0.837
333.15 K	769.09	1172.6	–	0.736
343.15 K	761.4	–	–	0.653

CCCCCCCCCCCC [dodecane]
Conditions	mass density [kg/m3]	speed of sound [m/s]	surface tension liquid-gas [mN/m]	viscosity [mPa·s]
293.15 K	748.79	1297.3	–	1.47
293.6 K	–	–	25	–
303.15 K	741.54	1259.1	–	1.23
313.15 K	734.25	1221.5	–	1.05
323.15 K	726.94	1184.4	–	0.902
333.15 K	719.59	1148	–	0.786
343.15 K	712.2	–	–	0.69

CCCCCCCCCCCCCCCC [hexadecane]
Conditions	mass density [kg/m3]	speed of sound [m/s]	surface tension liquid-gas [mN/m]	viscosity [mPa·s]
293.15 K	773.42	1356.4	–	3.43
294 K	–	–	27.2	–
303.15 K	766.47	1319	–	2.72
313.15 K	759.55	1282.6	–	2.2
323.15 K	752.63	1246.9	–	1.82
333.15 K	745.71	1212	–	1.54
343.15 K	738.8	–	–	1.31

CCCCCCc1ccccc1 [hexylbenzene]
Conditions	mass density [kg/m3]	speed of sound [m/s]	surface tension liquid-gas [mN/m]	viscosity [mPa·s]
293.15 K	857.69	1374.7	–	1.68
294.1 K	–	–	29.4	–
303.15 K	850.09	1337.3	–	1.41
313.15 K	842.49	1300.5	–	1.2
323.15 K	834.87	1264.3	–	1.03
333.15 K	827.48	1228.8	–	0.901
343.15 K	819.5	–	–	0.794

Cc1ccccc1 [toluene]
Conditions	surface tension liquid-gas [mN/m]
293 K	28.6
